Legend:
Dihydrofolate reductase [1] = target: T1, Dihydrofolate reductase (Homo sapiens, UniProt P00374); experiment: Inhibitory activity against recombinant human dihydrofolate reductase
T1 sequence (P00374 whole entry): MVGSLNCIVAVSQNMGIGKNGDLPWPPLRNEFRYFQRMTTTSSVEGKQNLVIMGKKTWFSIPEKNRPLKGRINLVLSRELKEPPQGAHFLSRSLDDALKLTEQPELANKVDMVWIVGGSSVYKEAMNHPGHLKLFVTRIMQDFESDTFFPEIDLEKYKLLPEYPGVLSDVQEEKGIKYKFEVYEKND

[2] = Selective ratio of Human / Candida albicans was determined
Dihydrofolate reductase [3] = target: T2, Dihydrofolate reductase (Candida albicans, UniProt P22906); experiment: Inhibitory activity against Candida albicans Dihydrofolate Reductase (DHFR)
T2 sequence (P22906 whole entry): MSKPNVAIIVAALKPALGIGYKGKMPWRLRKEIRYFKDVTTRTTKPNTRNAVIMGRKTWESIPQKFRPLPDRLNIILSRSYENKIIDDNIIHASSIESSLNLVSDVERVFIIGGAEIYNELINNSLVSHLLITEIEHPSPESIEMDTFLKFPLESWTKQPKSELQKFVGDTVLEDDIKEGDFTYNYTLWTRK

An IC50 (Dihydrofolate reductase [1]) of 6.6 nM, an SI [2] of 1.7 and an IC50 (Dihydrofolate reductase [3]) of 4 nM were found for `CCC(CC)n1ccc2c3c(N)nc(N)nc3ccc21` in this work.

Reference: ChEMBL document CHEMBL1134578, “X-Ray crystal structures of Candida albicans dihydrofolate reductase: high resolution ternary complexes in which the dihydronicotinamide moiety of NADPH is displaced by an inhibitor” (J Med Chem, 2001)
